How the values were obtained:
Assay type in all cases: functional
DMS-114 = test: Cytotoxicity against human DMS114 cells after 48 hrs by sulforhodamine B assay; conditions: DMS-114, 48 h
[1] = Cytotoxicity against human MKN1 cells after 48 hrs by sulforhodamine B assay; conditions: MKN-1, 48 h
SNB-75 = test: Cytotoxicity against human SNB75 cells after 48 hrs by sulforhodamine B assay; conditions: SNB-75, 48 h
SF-539 = test: Cytotoxicity against human SF539 cells after 48 hrs by sulforhodamine B assay; conditions: SF-539, 48 h
NCI-H226 = test: Cytotoxicity against human NCI-H226 cells after 48 hrs by sulforhodamine B assay; conditions: NCI-H226, 48 h
MKN-7 = test: Cytotoxicity against human MKN7 cells after 48 hrs by sulforhodamine B assay; conditions: MKN-7, 48 h
SNB-78 = test: Cytotoxicity against human SNB78 cells after 48 hrs by sulforhodamine B assay; conditions: SNB-78, 48 h
SF-268 = test: Cytotoxicity against human SF268 cells after 48 hrs by sulforhodamine B assay; conditions: SF-268, 48 h
ACHN = test: Cytotoxicity against human ACHN cells after 48 hrs by sulforhodamine B assay
DU-145 = test: Cytotoxicity against human DU145 cells after 48 hrs by sulforhodamine B assay; conditions: DU-145, 48 h
LOX IMVI = test: Cytotoxicity against human LOXIMVI cells after 48 hrs by sulforhodamine B assay
SF-295 = test: Cytotoxicity against human SF295 cells after 48 hrs by sulforhodamine B assay; conditions: SF-295, 48 h
[2] = Cytotoxicity against human HBC5 cells after 48 hrs by sulforhodamine B assay; conditions: HBC5, 48 h
DMS-273 = test: Cytotoxicity against human DMS273 cells after 48 hrs by sulforhodamine B assay; conditions: DMS-273, 48 h
[3] = Cytotoxicity against human HBC4 cells after 48 hrs by sulforhodamine B assay; conditions: HBC4, 48 h
MDA-MB-231 = test: Cytotoxicity against human MDA-MB-231 cells after 48 hrs by sulforhodamine B assay; conditions: MDA-MB-231, 48 h
OVCAR-4 = test: Cytotoxicity against human OVCAR4 cells after 48 hrs by sulforhodamine B assay; conditions: OVCAR-4, 48 h
HCT-15 = test: Cytotoxicity against human HCT15 cells after 48 hrs by sulforhodamine B assay; conditions: HCT-15, 48 h
SK-OV-3 = test: Cytotoxicity against human SKOV3 cells after 48 hrs by sulforhodamine B assay; conditions: SK-OV-3, 48 h
MKN-45 = test: Cytotoxicity against human MKN45 cells after 48 hrs by sulforhodamine B assay; conditions: MKN-45, 48 h
OVCAR-5 = test: Cytotoxicity against human OVCAR5 cells after 48 hrs by sulforhodamine B assay; conditions: OVCAR-5, 48 h
NCI-H522 = test: Cytotoxicity against human NCI-H522 cells after 48 hrs by sulforhodamine B assay; conditions: NCI-H522, 48 h
OVCAR-3 = test: Cytotoxicity against human OVCAR3 cells after 48 hrs by sulforhodamine B assay; conditions: OVCAR-3, 48 h
PC-3 = test: Cytotoxicity against human PC3 cells after 48 hrs by sulforhodamine B assay; conditions: PC-3, 48 h
NCI-H23 = test: Cytotoxicity against human NCI-H23 cells after 48 hrs by sulforhodamine B assay; conditions: NCI-H23, 48 h
MKN-28 = test: Cytotoxicity against human MKN28 cells after 48 hrs by sulforhodamine B assay; conditions: MKN-28, 48 h
MCF7 = test: Cytotoxicity against human MCF7 cells after 48 hrs by sulforhodamine B assay; conditions: MCF7, 48 h
HT-29 = test: Cytotoxicity against human HT-29 cells after 48 hrs by sulforhodamine B assay; conditions: HT-29, 48 h
St-4 = test: Cytotoxicity against human St-4 cells after 48 hrs by sulforhodamine B assay; conditions: St-4, 48 h
A549 = test: Cytotoxicity against human A549 cells after 48 hrs by sulforhodamine B assay; conditions: A549, 48 h
U-251 = test: Cytotoxicity against human U251 cells after 48 hrs by sulforhodamine B assay; conditions: U-251, 48 h
OVCAR-8 = test: Cytotoxicity against human OVCAR8 cells after 48 hrs by sulforhodamine B assay; conditions: OVCAR-8, 48 h
[4] = Cytotoxicity against human RXF631L cells after 48 hrs by sulforhodamine B assay; conditions: RXF 631, 48 h
MKN-74 = test: Cytotoxicity against human MKN74 cells after 48 hrs by sulforhodamine B assay; conditions: MKN-74, 48 h
NCI-H460 = test: Cytotoxicity against human NCI-H460 cells after 48 hrs by sulforhodamine B assay; conditions: NCI-H460, 48 h
KM12 = test: Cytotoxicity against human KM12 cells after 48 hrs by sulforhodamine B assay; conditions: KM12, 48 h
HCT-116 = test: Cytotoxicity against human HCT116 cells after 48 hrs by sulforhodamine B assay; conditions: HCT-116, 48 h
[5] = Cytotoxicity against human BSY1 cells after 48 hrs by sulforhodamine B assay; conditions: BSY-1, 48 h
HCC 2998 = test: Cytotoxicity against human HCC2998 cells after 48 hrs by sulforhodamine B assay; conditions: HCC 2998, 48 h

Compound | GI50 (DMS-114) [µM] | GI50 [1] [µM] | GI50 (SNB-75) [µM] | GI50 (SF-539) [µM] | GI50 (NCI-H226) [µM] | GI50 (MKN-7) [µM] | GI50 (SNB-78) [µM] | GI50 (SF-268) [µM] | GI50 (ACHN) [µM] | GI50 (DU-145) [µM] | GI50 (LOX IMVI) [µM] | GI50 (SF-295) [µM] | GI50 [2] [µM] | GI50 (DMS-273) [µM] | GI50 [3] [µM] | GI50 (MDA-MB-231) [µM] | GI50 (OVCAR-4) [µM] | GI50 (HCT-15) [µM] | GI50 (SK-OV-3) [µM] | GI50 (MKN-45) [µM] | further results
CCCCCCCCCCCC[C@@H](O)[C@H]1CC[C@H]([C@H](O)CCCCCCCCCCCCC2=C[C@H](C(F)(F)F)OC2=O)O1 | 52 | > 100 | > 100 | > 100 | 88 | 89 | > 100 | > 100 | > 100 | > 100 | > 100 | 72 | > 100 | > 100 | > 100 | > 100 | > 100 | > 100 | > 100 | > 100 | GI50 (OVCAR-5): > 100 µM; GI50 (NCI-H522): 53 µM; GI50 (OVCAR-3): > 100 µM; GI50 (PC-3): > 100 µM; GI50 (NCI-H23): > 100 µM; GI50 (MKN-28): > 100 µM; GI50 (MCF7): 80 µM; GI50 (HT-29): > 100 µM; GI50 (St-4): > 100 µM; GI50 (A549): > 100 µM; GI50 (U-251): > 100 µM; GI50 (OVCAR-8): > 100 µM; GI50 [4]: > 100 µM; GI50 (MKN-74): > 100 µM; GI50 (NCI-H460): > 100 µM; GI50 (KM12): > 100 µM; GI50 (HCT-116): > 100 µM; GI50 [5]: > 100 µM; GI50 (HCC 2998): > 100 µM
CCCCCCCCCCCC[C@@H](O)[C@H]1CC[C@H]([C@H](O)CCCCCCCCCCCCC2=C[C@H](C)OC2=O)O1 [REL-SOLAMIN] | 4.3 | > 100 | > 100 | > 100 | > 100 | 13 | > 100 | > 100 | > 100 | > 100 | 29 | 40 | > 100 | > 100 | > 100 | > 100 | > 100 | > 100 | > 100 | > 100 | GI50 (OVCAR-5): > 100 µM; GI50 (NCI-H522): 58 µM; GI50 (OVCAR-3): > 100 µM; GI50 (PC-3): > 100 µM; GI50 (NCI-H23): 73 µM; GI50 (MKN-28): 14 µM; GI50 (MCF7): 71 µM; GI50 (HT-29): > 100 µM; GI50 (St-4): > 100 µM; GI50 (A549): > 100 µM; GI50 (U-251): > 100 µM; GI50 (OVCAR-8): > 100 µM; GI50 [4]: > 100 µM; GI50 (MKN-74): > 100 µM; GI50 (NCI-H460): > 100 µM; GI50 (KM12): > 100 µM; GI50 (HCT-116): > 100 µM; GI50 [5]: > 100 µM; GI50 (HCC 2998): > 100 µM
CCCCCCCCCCCC[C@@H](O)[C@H]1CC[C@H]([C@H](O)CCCCCCCCCCCCC2=C[C@H](C(F)F)OC2=O)O1 | 24 | 67 | > 100 | 79 | 63 | 19 | > 100 | > 100 | > 100 | > 100 | 15 | 44 | 11 | 16 | 32 | > 100 | 87 | 82 | > 100 | > 100 | GI50 (OVCAR-5): > 100 µM; GI50 (NCI-H522): 24 µM; GI50 (OVCAR-3): > 100 µM; GI50 (PC-3): 60 µM; GI50 (NCI-H23): 75 µM; GI50 (MKN-28): 96 µM; GI50 (MCF7): 61 µM; GI50 (HT-29): > 100 µM; GI50 (St-4): > 100 µM; GI50 (A549): > 100 µM; GI50 (U-251): > 100 µM; GI50 (OVCAR-8): 85 µM; GI50 [4]: > 100 µM; GI50 (MKN-74): 57 µM; GI50 (NCI-H460): > 100 µM; GI50 (KM12): > 100 µM; GI50 (HCT-116): > 100 µM; GI50 [5]: > 100 µM; GI50 (HCC 2998): > 100 µM
CCCCCCCCCCCC[C@@H](O)[C@H]1CC[C@H]([C@H](O)CCCCCCCCCCCCC2=C[C@H](CF)OC2=O)O1 | 6.9 | 58 | 63 | > 100 | 51 | 19 | > 100 | > 100 | > 100 | > 100 | > 100 | 36 | 32 | 48 | > 100 | 59 | > 100 | > 100 | > 100 | 76 | GI50 (OVCAR-5): > 100 µM; GI50 (NCI-H522): 15 µM; GI50 (OVCAR-3): > 100 µM; GI50 (PC-3): 24 µM; GI50 (NCI-H23): 12 µM; GI50 (MKN-28): 7.8 µM; GI50 (MCF7): 45 µM; GI50 (HT-29): 63 µM; GI50 (St-4): 37 µM; GI50 (A549): 76 µM; GI50 (U-251): > 100 µM; GI50 (OVCAR-8): 16 µM; GI50 [4]: > 100 µM; GI50 (MKN-74): 40 µM; GI50 (NCI-H460): 79 µM; GI50 (KM12): > 100 µM; GI50 (HCT-116): 16 µM; GI50 [5]: 60 µM; GI50 (HCC 2998): > 100 µM

Reference: ChEMBL document CHEMBL1833873, “Design and synthesis of C35-fluorinated solamins and their growth inhibitory activities against human cancer cell lines” (2011)
